Reference: publication PMC6891286, “Towards the Development of an In vivo Chemical Probe for Cyclin G Associated Kinase (GAK)” (Molecules, 2019)
Like-named read-outs stand apart in the source and are kept apart here.

Key:
GAK [1] = target: T1, GAK (Homo sapiens, UniProt O14976); experiment: live cell NanoBRET target engagement assay; assay type: cell-based; details: for IC50: nanoBRET, mean average, n = 2; for IC50 values in cells: live cell NanoBRET assay
T1 sequence (O14976 1-1311): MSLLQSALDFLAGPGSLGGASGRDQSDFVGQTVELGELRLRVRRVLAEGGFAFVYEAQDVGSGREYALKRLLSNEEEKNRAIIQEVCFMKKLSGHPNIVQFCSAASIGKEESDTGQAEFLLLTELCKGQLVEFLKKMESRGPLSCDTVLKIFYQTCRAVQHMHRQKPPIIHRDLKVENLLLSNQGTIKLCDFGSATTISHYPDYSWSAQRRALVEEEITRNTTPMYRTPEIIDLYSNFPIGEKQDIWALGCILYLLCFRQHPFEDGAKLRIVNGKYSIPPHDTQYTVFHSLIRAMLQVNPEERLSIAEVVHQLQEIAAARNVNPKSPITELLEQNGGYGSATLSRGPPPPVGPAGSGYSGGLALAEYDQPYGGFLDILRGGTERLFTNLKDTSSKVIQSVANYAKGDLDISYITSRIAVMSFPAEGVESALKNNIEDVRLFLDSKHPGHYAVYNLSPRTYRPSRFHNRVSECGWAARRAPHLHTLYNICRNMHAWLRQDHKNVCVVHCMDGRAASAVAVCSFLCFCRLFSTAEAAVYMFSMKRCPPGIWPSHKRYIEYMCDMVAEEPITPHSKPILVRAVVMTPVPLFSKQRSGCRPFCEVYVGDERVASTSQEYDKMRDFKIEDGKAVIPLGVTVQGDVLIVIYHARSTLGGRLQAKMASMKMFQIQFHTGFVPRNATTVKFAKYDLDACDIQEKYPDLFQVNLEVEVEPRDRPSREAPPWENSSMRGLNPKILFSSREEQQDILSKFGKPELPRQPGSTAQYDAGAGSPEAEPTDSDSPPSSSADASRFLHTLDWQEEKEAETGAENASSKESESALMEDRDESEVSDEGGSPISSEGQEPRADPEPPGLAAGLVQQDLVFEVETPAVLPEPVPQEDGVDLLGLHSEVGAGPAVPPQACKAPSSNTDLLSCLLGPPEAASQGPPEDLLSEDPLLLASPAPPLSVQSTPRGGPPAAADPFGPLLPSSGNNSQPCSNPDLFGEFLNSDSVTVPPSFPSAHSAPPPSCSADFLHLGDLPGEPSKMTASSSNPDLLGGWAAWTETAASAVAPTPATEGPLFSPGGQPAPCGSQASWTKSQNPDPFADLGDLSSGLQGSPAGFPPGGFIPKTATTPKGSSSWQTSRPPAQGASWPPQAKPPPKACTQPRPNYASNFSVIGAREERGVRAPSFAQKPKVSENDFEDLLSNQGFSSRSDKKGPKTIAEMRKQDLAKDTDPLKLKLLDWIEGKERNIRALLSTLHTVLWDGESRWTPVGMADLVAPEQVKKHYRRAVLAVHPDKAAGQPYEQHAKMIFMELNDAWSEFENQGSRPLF

GAK [2] = target: T1, GAK; experiment: TR-FRET ligand-binding displacement assay
BMP2K = BMP2K (Homo sapiens, UniProt Q9NSY1); experiment: NAK family TR-FRET binding displacement assay
Kinetic Solubility = assay type: physicochemical; details: PBS pH7.4 (100 µM)
STK16 = STK16 (Homo sapiens, UniProt O75716); experiment: NAK family TR-FRET binding displacement assay
AAK1 = AAK1 (Homo sapiens, UniProt Q2M2I8); experiment: NAK family TR-FRET binding displacement assay; details: NAK family FRET screening
[3] = mouse liver microsome metabolic stability; details: for T1/2 Ratio (+) ABT / T1/2 Ratio (−) ABT / T1/2 Ratio / CLint scaled / half-life: mouse liver microsomes; for T1/2 Ratio (+) ABT / T1/2 Ratio (−) ABT: normalized to propranolol; for T1/2 Ratio: normalization with respect to internal control (propranolol); for CLint scaled / half-life: mouse; for half-life / T1/2: mean average, n = 2
Description: SGC-GAK-1 (1) was incubated with MLMs in the presence or absence of added NADPH, and the compound was quantified at various time points over an hour.
The metabolic stability of the 4-anilinoquinolines (8–13) were evaluated in MLMs (Table 1). Half-lives for metabolic clearance were normalized to propranolol in each experimental run to control for variations in the MLM preparations.

[4] = metabolite identification in mouse liver microsomes
Description: After centrifugation, the supernatant was subjected to analysis by LCMS, and structures of metabolites were assigned on the basis of their molecular weight and fragmentation pattern.
Compounds were incubated at a concentration of 10 µM with mouse liver microsomes in the presence of an excess of NADPH.
1.1. General Numbering of Metabolites
The metabolites are numbered according to their retention times in the gradient LC-MS analysis in positive […]
ion mode. […] The M number increases […]
consecutively for metabolites with increasing retention time.
To avoid confusion, labelled retention times of a metabolite peak in different injections are the same, which may lead to mismatch between labelled retention time and actual retention time.
General Strategy for Metabolite Identification
The vehicle control and study samples were injected into LC-MS with gradient elution using a Q1 scan method. Searching for potential metabolites was then performed using LightSight software (Applied Biosystems/MDS Sciex) by comparing a total ion current chromatogram of Q1 scan from a study sample with a chromatogram from the corresponding vehicle control sample. The study sample was then injected again to obtain the product ion spectra of potential metabolites using product ion scan methods. The fragmentation patterns of the potential metabolites were then compared to the fragmentation of the parent compound to elucidate the structures of the metabolites.
The assignment of fragments is shown
2.2. Identification of Metabolites in Mouse Liver Microsomal Incubation

[5] = TR-FRET assay, read-out: Biochemical GAK Ki
[6] = pH 7.4, aqueous buffer, kinetic from dmso stock, read-out: Kinetic Solubility µM
[7] = pH 7.4, aqueous buffer, kinetic from dmso stock, read-out: Kinetic Solubility µg/mL
[8] = NAK family FRET screening, read-out: Binding displacement assay STK16 Ki
[9] = Clint (mL/min/kg) (+) ABT, (+) ABT
[10] = Clint (mL/min/kg) (−) ABT, (−) ABT
[11] = T1/2 (min), mouse liver microsomes with NADPH
[12] = NAK family FRET screening, read-out: Binding displacement assay BMP2K Ki
[13] = mouse liver microsomes with NADPH
[14] = NAK family FRET screening, read-out: Binding displacement assay GAK Ki

Chain of BMP2K (Q9NSY1 whole entry): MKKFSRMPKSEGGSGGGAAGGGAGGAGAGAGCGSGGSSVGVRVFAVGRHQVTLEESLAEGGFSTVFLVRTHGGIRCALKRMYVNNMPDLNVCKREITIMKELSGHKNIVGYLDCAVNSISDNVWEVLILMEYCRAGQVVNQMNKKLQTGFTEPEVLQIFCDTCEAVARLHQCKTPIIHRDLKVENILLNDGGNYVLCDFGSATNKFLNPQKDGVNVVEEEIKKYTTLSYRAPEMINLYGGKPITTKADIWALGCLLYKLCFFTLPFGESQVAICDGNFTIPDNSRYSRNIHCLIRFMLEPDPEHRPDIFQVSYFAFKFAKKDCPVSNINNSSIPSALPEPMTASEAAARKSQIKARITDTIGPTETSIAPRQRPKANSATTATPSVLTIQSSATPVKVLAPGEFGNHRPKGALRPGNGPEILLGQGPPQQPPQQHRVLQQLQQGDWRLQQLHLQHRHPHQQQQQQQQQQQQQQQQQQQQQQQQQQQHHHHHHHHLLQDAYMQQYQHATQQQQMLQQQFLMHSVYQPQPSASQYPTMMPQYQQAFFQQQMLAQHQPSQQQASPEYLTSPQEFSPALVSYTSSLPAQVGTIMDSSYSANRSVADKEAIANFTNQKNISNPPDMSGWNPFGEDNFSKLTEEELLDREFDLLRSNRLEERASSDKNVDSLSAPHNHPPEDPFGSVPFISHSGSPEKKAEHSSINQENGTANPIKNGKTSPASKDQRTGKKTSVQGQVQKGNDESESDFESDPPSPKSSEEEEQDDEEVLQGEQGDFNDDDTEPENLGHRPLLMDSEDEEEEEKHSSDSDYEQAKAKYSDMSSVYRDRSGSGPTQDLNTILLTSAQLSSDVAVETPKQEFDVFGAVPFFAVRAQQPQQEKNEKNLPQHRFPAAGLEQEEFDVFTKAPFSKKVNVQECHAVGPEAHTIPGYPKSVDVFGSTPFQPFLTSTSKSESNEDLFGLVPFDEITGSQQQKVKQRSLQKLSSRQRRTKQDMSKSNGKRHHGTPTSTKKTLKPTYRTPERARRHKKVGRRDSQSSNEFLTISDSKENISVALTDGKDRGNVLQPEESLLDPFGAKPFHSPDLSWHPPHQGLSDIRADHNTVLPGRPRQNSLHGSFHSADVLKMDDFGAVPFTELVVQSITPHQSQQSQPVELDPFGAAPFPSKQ
Chain of AAK1 (Q2M2I8 whole entry): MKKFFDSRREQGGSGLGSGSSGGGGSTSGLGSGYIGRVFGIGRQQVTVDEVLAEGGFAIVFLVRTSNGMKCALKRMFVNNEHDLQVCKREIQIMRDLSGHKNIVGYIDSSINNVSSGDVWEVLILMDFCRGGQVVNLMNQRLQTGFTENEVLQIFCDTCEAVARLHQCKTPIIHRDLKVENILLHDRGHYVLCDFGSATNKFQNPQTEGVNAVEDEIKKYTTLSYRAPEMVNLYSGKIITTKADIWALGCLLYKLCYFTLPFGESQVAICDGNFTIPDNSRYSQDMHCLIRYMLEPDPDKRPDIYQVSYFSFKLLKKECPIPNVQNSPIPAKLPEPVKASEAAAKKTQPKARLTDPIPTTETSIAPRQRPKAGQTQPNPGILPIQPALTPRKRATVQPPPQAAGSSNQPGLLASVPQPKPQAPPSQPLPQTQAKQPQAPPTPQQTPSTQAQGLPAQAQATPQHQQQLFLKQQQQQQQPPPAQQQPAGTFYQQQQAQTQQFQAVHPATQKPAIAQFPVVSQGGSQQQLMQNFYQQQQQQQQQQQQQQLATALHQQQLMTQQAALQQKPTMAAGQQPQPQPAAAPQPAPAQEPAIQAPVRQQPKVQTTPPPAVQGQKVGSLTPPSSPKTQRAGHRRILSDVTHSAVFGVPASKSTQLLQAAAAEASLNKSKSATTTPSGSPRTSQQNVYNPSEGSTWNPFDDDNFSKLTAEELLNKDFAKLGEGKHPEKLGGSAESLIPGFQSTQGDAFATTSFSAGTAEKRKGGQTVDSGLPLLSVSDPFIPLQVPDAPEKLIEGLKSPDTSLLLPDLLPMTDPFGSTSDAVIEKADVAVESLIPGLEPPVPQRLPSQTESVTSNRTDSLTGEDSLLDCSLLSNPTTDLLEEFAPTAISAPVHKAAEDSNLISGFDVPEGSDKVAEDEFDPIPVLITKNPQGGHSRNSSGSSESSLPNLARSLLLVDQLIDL
Chain of STK16 (O75716 whole entry): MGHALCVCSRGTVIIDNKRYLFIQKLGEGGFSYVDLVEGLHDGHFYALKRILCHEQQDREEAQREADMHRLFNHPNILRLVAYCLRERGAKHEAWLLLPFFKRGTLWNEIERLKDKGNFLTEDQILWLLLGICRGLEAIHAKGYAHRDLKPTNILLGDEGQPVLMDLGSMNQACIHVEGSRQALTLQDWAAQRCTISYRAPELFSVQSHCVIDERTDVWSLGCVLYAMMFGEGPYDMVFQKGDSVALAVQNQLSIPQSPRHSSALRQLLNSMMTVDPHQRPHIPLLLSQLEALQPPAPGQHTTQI

Molecule | IC50 (GAK [1]) [µM] | Ki (GAK [2]; [5]) [µM] | Ki (BMP2K) [µM] | solubility kinetic (Kinetic Solubility; [6]) [µM] | solubility kinetic (Kinetic Solubility; [7]) [µg/mL] | Ki (STK16; [8]) [µM] | Ki (AAK1) [µM] | T1/2 Ratio [3] | half-life [3, 11] [min] | IC50 values in cells (GAK [1]) | other results
Fc1ccc(F)c(Nc2ccnc3ccc(Br)cc23)c1 [Compound 10, 6-Bromo-N-(2,5-difluorophenyl)quinolin-4-amine] | 0.87 | 0.015 | 9.8 | 2.2 | 0.7 | 6.2 | 3.8 | 0.17 | 1.7 | – | Primary Metabolism Site [4]: Aniline; Primary Metabolite Mass [4]: Parent + O
COc1cc(Nc2ccnc3ccc(C(F)(F)F)cc23)cc(OC)c1OC [Compound 13] | – | – | – | – | – | 17 | 54 | – | – | – | Ki (BMP2K; [12]): > 100 µM; T1/2 [3, 13]: 6.4 min; Primary Metabolism Site [4]: Aniline; Primary Metabolite Mass [4]: Parent + O
Brc1ccc2nccc(Nc3cccc4cnoc34)c2c1 [Compound 21, N-(6-Bromoquinolin-4-yl)benzo[d]isoxazol-7-amine] | 1.4 | 0.037 | 12 | 24.9 | 8.5 | 7.6 | 4.6 | 0.64 | 5.2 | – | –
Brc1ccc2nccc(Nc3cccc4oncc34)c2c1 [Compound 22, N-(6-Bromoquinolin-4-yl)benzo[d]isoxazol-4-amine] | > 5 | 0.019 | 15 | 3.6 | 1.2 | – | 4.6 | 0.17 | 1.4 | – | Ki (STK16): 15 µM
Brc1ccc2nccc(Nc3cccc4scnc34)c2c1 [Compound 25, N-(6-Bromoquinolin-4-yl)benzo[d]thiazol-4-amine] | > 5 | 0.026 | > 100 | 1.1 | 0.4 | > 100 | 1.2 | 0.32 | 2.6 | – | –
Brc1ccc2nccc(Nc3cccc4[nH]ncc34)c2c1 [Compound 32, 6-Bromo-N-(1H-indazol-4-yl)quinolin-4-amine] | 0.76 | 0.014 | 7.4 | 5.1 | 1.7 | 19 | 4.6 | 0.32 | 2.5 | submicromolar | –
Brc1ccc2nccc(Nc3ccc4[nH]ncc4c3)c2c1 [Compound 37, 6-Bromo-N-(1H-indazol-5-yl)quinolin-4-amine] | > 5 | 0.047 | 0.66 | 12.3 | 4.2 | 5.7 | 0.52 | 0.92 | 7.5 | – | –
N-(1H-Indazol-4-yl)-6-(trifluoromethyl)quinolin-4-amine [Compound 33] | > 5 | 0.72 | – | – | – | 11 | 4.6 | 0.90 | – | – | Ki (BMP2K; [12]): 16 µM; Kinetic Solubility µg/mL (Kinetic Solubility): 8.2 µg/mL; solubility kinetic (Kinetic Solubility; read-out: Kinetic Solubility µM): 24.2 µM; T1/2 [3, 13]: 5.9 min

More lines, main results first:

IC50 (GAK [1]) [µM] | Ki (GAK [2]; [5]) [µM] | Ki (BMP2K) [µM] | solubility kinetic (Kinetic Solubility; [6]) [µM] | solubility kinetic (Kinetic Solubility; [7]) [µg/mL] | Ki (STK16; [8]) [µM] | Ki (AAK1) [µM] | T1/2 Ratio [3] | half-life [3, 11] [min] | IC50 values in cells (GAK [1]) | Molecule | other results
0.022 | 0.0019 | > 100 | 7.3 | 2.5 | > 100 | > 100 | 1.9 | 8.9 | – | Brc1ccc2nccc(Nc3cccc4c3OCO4)c2c1 [Compound 9, N-(Benzo[d][1,3]dioxol-4-yl)-6-bromoquinolin-4-amine] | T1/2 Ratio (+) ABT ([3]; (+) ABT): 0.13; T1/2 Ratio (−) ABT ([3]; (−) ABT): 0.05; CLint scaled [3, 9]: 188 L/h/kg; CLint scaled [3, 10]: 457 L/h/kg; half-life ([3]; T1/2 (min) (+) ABT, (+) ABT): 1.8 min; half-life ([3]; T1/2 (min) (−) ABT, (−) ABT): 0.74 min; Primary Metabolism Site [4]: Aniline; Primary Metabolite Mass [4]: Parent + O
0.12 | 0.0014 | 16 | 8.8 | 3.2 | 20 | 9.7 | 0.27 | 1.8 | – | Fc1ccc2c(c1Nc1ccnc3ccc(Br)cc13)OCO2 [Compound 14, 6-Bromo-N-(5-fluorobenzo[d][1,3]dioxol-4-yl)quinolin-4-amine] | T1/2 Ratio (+) ABT ([3]; (+) ABT): 0.18; T1/2 Ratio (−) ABT ([3]; (−) ABT): 0.05; CLint scaled [3, 9]: 137 L/h/kg; CLint scaled [3, 10]: 453 L/h/kg; half-life ([3]; T1/2 (min) (+) ABT, (+) ABT): 2.5 min; half-life ([3]; T1/2 (min) (−) ABT, (−) ABT): 0.74 min
0.34 | – | > 100 | 25.9 | 8.8 | > 100 | > 100 | 0.21 | 1.7 | submicromolar | Brc1ccc2nccc(Nc3cccc4ncoc34)c2c1 [Compound 23, N-(6-Bromoquinolin-4-yl)benzo[d]oxazol-7-amine] | Ki (GAK [2]; [14]): 0.011 µM
0.22 | – | 7.9 | 8.6 | 3.1 | – | 2.6 | 0.68 | 5.3 | submicromolar | Brc1ccc2nccc(Nc3cccc4ncsc34)c2c1 [Compound 24, N-(6-Bromoquinolin-4-yl)benzo[d]thiazol-7-amine] | Ki (GAK [2]; [14]): 0.0041 µM; Ki (STK16): 7.8 µM
0.4 | 0.0053 | 4.3 | 1.7 | 0.6 | 22 | 2 | 0.20 | 1.6 | submicromolar | Brc1ccc2nccc(Nc3cccc4nsnc34)c2c1 [Compound 29, N-(6-Bromoquinolin-4-yl)benzo[c][1,2,5]thiadiazol-4-amine] | –
